Test results from patent US7799809B2, “Carboxamide compounds and their use as calpain inhibitors” (Abbott GmbH & Co. KG, priority 2006, dated 2010).

What was measured:
Type in all cases: biochemical
cathepsin B = target: T1, cathepsin B (Homo sapiens, UniProt P07858); experiment: Cathepsin B enzyme inhibition in vitro (kinetic fluorescence assay); conditions: cathepsin B isolated from human liver vs calpain I
T1 construct: cathepsin B—isolated from human liver (Calbiochem #219362); purchased Calbiochem 219362; host or cells: human liver (tissue-derived)
Procedure: (§1) The following solutions and buffers were employed: • HBS (for 40 ml): 800 μl M HEPES; 2.16 ml 100 mM KCl; 4.8 ml 1M NaCl; 3.59 ml 5% glucose; 60 μl μM MgSO4; 400 μl 100 mM Na pyruvate, 28.19 ml water; pH 7.2-7.5. • lysis buffer (for 20 ml): 400 μl M Tris pH 8.2; 2.74 ml 1M NaCl; 520 μl 0.5M EDTA; 2 ml 10% triton X-100; 0.8 ml (=1:25) CompletePlus (1 tablet/2 ml H2O); 200 μl 100 mM Pefabloc; 13.34 ml water, pH 8.2. • TBST (10×) (for 1 l): 100 mM Tris (12.1 g); 1.5M NaCl (87 g); 1% Tween 20 (10 g), adjusted to pH 8. I Enzyme Inhibition In Vitro: • Testing for blockade of the corresponding enzymic activities was carried out by means of kinetic fluorescence assays (excitation 390 nm, emission 460 nm). • Apparent Ki values were calculated from the experimentally determined IC50 values by the Cheng-Prussoff relation assuming a reversible competitive enzyme inhibition. The Km values of the substrates used under the assay conditions indicated above were: 90 μM (Z-Phe-Arg-AMC, cathepsin B), 10 μM (Z-Gly-Pro-Arg-AMC, cathepsin K), 2 μM (Z-Phe-Arg-AMC, cathepsin L), and 30 μM (Z-Val-Val-Arg-AMC, cathepsin S). • The indicated Ki values are averages of the inhibition constants calculated on the basis of 2 to 4 independent dose-effect plots.
(§2) The following assays were used: • 1. Calpain I: • 20 nM calpain-I—isolated from human erythrocytes (Calbiochem #208713), 100 μM Suc-Leu-Tyr-AMC (Bachem #1-1355) as substrate in buffer with 62 mM imidazole, 0.3 mM CaCl2, 0.10% CHAPS, 0.05% BSA, 1 mM DTT at pH 7.3 and room temperature. • 2. Cathepsin B: • 0.25 nM cathepsin B—isolated from human liver (Calbiochem #219362), 100 μM Z-Phe-Arg-AMC (Bachem #I-1160) as substrate 50 mM MES, 2 mM EDTA, 0.05% Brij 35, 2.5 mM L-cysteine, pH 6.0, room temperature. • 3. Cathepsin K: • 3 nM cathepsin K—activated from recombinant human procathepsin K from E. coli (Calbiochem #342001), 10 μM Z-Gly-Pro-Arg-AMC (Biomol #P-142) as substrate in 50 mM MES, 2 mM EDTA, 0.05% Brij 35, 2.5 mM L-cysteine, pH 6.0, room temperature. • 4. Cathepsin L: • 1 nM cathepsin L—isolated from human liver (Calbiochem #219402), 2 μM Z-Phe-Arg-AMC (Bachem #1-1160) as substrate in 50 mM MES, 2 mM EDTA, 0.05% Brij 35, 2.5 mM L-cysteine, pH 6.0, room temperature. • 5. Cathepsin S: • 0.5 nM recombinant human cathepsin S from E. coli (Calbiochem #219343), 20 μM Z-Val-Val-Arg-AMC (Bachem #1-1540) as substrate in 50 mM MES, 2 mM EDTA, 0.05% Brij 35, 2.5 mM L-cysteine, pH 6.0, room temperature. • The results of the in vitro determination are indicated in Table 1. The following abbreviations are used in Table 1: • The “Calpain activity” column, ++ stands for a calpain Ki (Ki(calpain)) of ≦40 nM and + means: 40 nM<Ki(Calpain)≦100 nM. • The “Sel. cat. B” column indicates the Ki(cathepsin B)/Ki(calpain) ratio. In this connection, ++ means a Ki(cathepsin B)/Ki(calpain) ratio of ≧30 and + means 10≦Ki(cathepsin B)/Ki(calpain)<30. • The “Sel. cat. K” column indicates the Ki(cathepsin K)/Ki(calpain) ratio. In this connection, ++ means a Ki(cathepsin K)/Ki(calpain) ratio of ≧30 and + means 10≦Ki(cathepsin K)/Ki(calpain)<30. • The “Sel. cat. L” column indicates the Ki(cathepsin L)/Ki(calpain) ratio. In this connection, ++ means a Ki(cathepsin L)/Ki(calpain) ratio of ≧50 and + means 30≦Ki(cathepsin L)/Ki(calpain)<50. • The “Sel. cat. S” column indicates the Ki(cathepsin S)/Ki(calpain) ratio. In this connection, ++ means a Ki(cathepsin S)/Ki(calpain) ratio of ≧100 and + means 50≦Ki(cathepsin S)/Ki(calpain)<100.

cathepsin L = target: T2, cathepsin L (Homo sapiens, UniProt P07711); experiment: Cathepsin L enzyme inhibition in vitro (kinetic fluorescence assay); conditions: cathepsin L isolated from human liver vs calpain I
T2 construct: cathepsin L—isolated from human liver (Calbiochem #219402); purchased Calbiochem 219402; host or cells: human liver (tissue-derived)
T2 sequence (P07711 114-333): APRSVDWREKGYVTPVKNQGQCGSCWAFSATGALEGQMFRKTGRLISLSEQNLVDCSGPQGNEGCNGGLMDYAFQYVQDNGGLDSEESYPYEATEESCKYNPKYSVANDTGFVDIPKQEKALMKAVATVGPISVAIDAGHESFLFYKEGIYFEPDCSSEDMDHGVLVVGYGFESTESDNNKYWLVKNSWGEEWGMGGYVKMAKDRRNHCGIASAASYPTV
Procedure: as §1, §2

cathepsin S = target: T3, cathepsin S (Homo sapiens, UniProt P25774); experiment: Cathepsin S enzyme inhibition in vitro (kinetic fluorescence assay); conditions: recombinant human cathepsin S vs calpain I
T3 construct: purchased Calbiochem 219343; host or cells: E. coli
T3 sequence (P25774 115-331): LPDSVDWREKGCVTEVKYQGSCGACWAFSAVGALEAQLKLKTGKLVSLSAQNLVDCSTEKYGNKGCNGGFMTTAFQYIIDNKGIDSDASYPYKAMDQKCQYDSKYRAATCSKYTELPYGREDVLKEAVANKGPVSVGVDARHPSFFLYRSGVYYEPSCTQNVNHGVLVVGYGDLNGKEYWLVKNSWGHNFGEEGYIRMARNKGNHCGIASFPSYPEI
Procedure: as §1, §2

Molecule	Sel cat. B: Ki(cathepsin B)/Ki(calpain) ratio (cathepsin B)	Sel cat. L: Ki(cathepsin L)/Ki(calpain) ratio (cathepsin L)	Sel cat. S: Ki(cathepsin S)/Ki(calpain) ratio (cathepsin S)
N-{3-Amino-1-[(4-fluorophenyl)methyl]-2,3-dioxopropyl}-2-[3-(2,3-dichlorophenyl)-1H-pyrazol-1-yl]pyridine-3-carboxamide [Example 161]	+ (+ means 10≦Ki(cathepsin B)/Ki(calpain)<30)	+ (+ means 30≦Ki(cathepsin L)/Ki(calpain)<50)	++ (++ means a Ki(cathepsin S)/Ki(calpain) ratio of ≧100)
Cc1cc(-c2ccccc2)nn1-c1ncccc1C(=O)NC(Cc1ccccc1)C(=O)C(N)=O (stereo not shown) [Example 61, N-(3-Amino-1-benzyl-2,3-dioxopropyl)-2-(5-methyl-3-phenyl-1H-pyrazol-1-yl)nicotinamide]	+ (+ means 10≦Ki(cathepsin B)/Ki(calpain)<30)	–	++ (++ means a Ki(cathepsin S)/Ki(calpain) ratio of ≧100)
CCCCC(NC(=O)c1cccnc1-n1ccc(-c2ccc(N3CCOCC3)cc2)n1)C(=O)C(N)=O (stereo not shown) [Example 33, N-{1-[Amino(oxo)acetyl]pentyl}-2-[3-(4-morpholin-4-ylphenyl)-1H-pyrazol-1-yl]nicotinamide]	+ (+ means 10≦Ki(cathepsin B)/Ki(calpain)<30)	–	+ (+ means 50≦Ki(cathepsin S)/Ki(calpain)<100)
NC(=O)C(=O)C(Cc1cccs1)NC(=O)c1cccnc1-n1ccc(-c2ccccc2)n1 (stereo not shown) [Example 40, N-[3-Amino-2,3-dioxo-1-(2-thienylmethyl)propyl]-2-(3-phenyl-1H-pyrazol-1-yl)pyridine-3-carboxamide]	+ (+ means 10≦Ki(cathepsin B)/Ki(calpain)<30)	++ (++ means a Ki(cathepsin L)/Ki(calpain) ratio of ≧50)	++ (++ means a Ki(cathepsin S)/Ki(calpain) ratio of ≧100)
CCCCC(NC(=O)c1cc(Cl)cnc1-n1ccc(-c2ccccc2)n1)C(=O)C(N)=O (stereo not shown) [Example 28, N-{1-[Amino(oxo)acetyl]pentyl}-5-chloro-2-(3-phenyl-1H-pyrazol-1-yl)nicotinamide]	+ (+ means 10≦Ki(cathepsin B)/Ki(calpain)<30)	–	–
Cc1cn(-c2ncccc2C(=O)NC(Cc2ccccc2)C(=O)C(N)=O)nc1-c1ccccc1 (stereo not shown) [Example 84, N-(3-Amino-1-benzyl-2,3-dioxopropyl)-2-(4-methyl-3-phenyl-1H-pyrazol-1-yl)nicotinamide]	+ (+ means 10≦Ki(cathepsin B)/Ki(calpain)<30)	++ (++ means a Ki(cathepsin L)/Ki(calpain) ratio of ≧50)	++ (++ means a Ki(cathepsin S)/Ki(calpain) ratio of ≧100)
NC(=O)C(=O)C(Cc1ccccc1)NC(=O)c1cccnc1-n1ccc(-c2cccc3cnccc23)n1 (stereo not shown) [Example 156, N-[3-Amino-2,3-dioxo-1-(phenylmethyl)propyl]-2-(3-isoquinolin-5-yl-1H-pyrazol-1-yl)pyridine-3-carboxamide]	+ (+ means 10≦Ki(cathepsin B)/Ki(calpain)<30)	+ (+ means 30≦Ki(cathepsin L)/Ki(calpain)<50)	++ (++ means a Ki(cathepsin S)/Ki(calpain) ratio of ≧100)
NC(=O)C(=O)C(Cc1ccccc1)NC(=O)c1cccnc1-n1ccc(-c2ccc(N3CCCCC3)cc2)n1 (stereo not shown) [Example 64, N-(3-Amino-1-benzyl-2,3-dioxopropyl)-2-[3-(4-piperidin-1-ylphenyl)-1H-pyrazol-1-yl]nicotinamide]	+ (+ means 10≦Ki(cathepsin B)/Ki(calpain)<30)	–	++ (++ means a Ki(cathepsin S)/Ki(calpain) ratio of ≧100)
NC(=O)C(=O)C(Cc1ccc(Br)cc1)NC(=O)c1cccnc1-n1ccc(-c2ccccc2)n1 (stereo not shown) [Example 122, N-{3-Amino-1-[(4-bromophenyl)methyl]-2,3-dioxopropyl}-2-(3-phenyl-1H-pyrazol-1-yl)pyridine-3-carboxamide]	++ (++ means a Ki(cathepsin B)/Ki(calpain) ratio of ≧30)	++ (++ means a Ki(cathepsin L)/Ki(calpain) ratio of ≧50)	++ (++ means a Ki(cathepsin S)/Ki(calpain) ratio of ≧100)
CC(C)CC(NC(=O)c1cc(Cl)cnc1-n1ccc(-c2ccccc2)n1)C(=O)C(N)=O (stereo not shown) [Example 32, N-{1-[Amino(oxo)acetyl]-3-methylbutyl}-5-chloro-2-(3-phenyl-1H-pyrazol-1-yl)nicotinamide]	+ (+ means 10≦Ki(cathepsin B)/Ki(calpain)<30)	–	–
CS(=O)(=O)NCc1cn(-c2ncccc2C(=O)NC(Cc2ccccc2)C(=O)C(N)=O)nc1-c1ccc(F)cc1 (stereo not shown) [Example 187, N-[3-Amino-2,3-dioxo-1-(phenylmethyl)propyl]-2-[3-(4-fluorophenyl)-4-{[(methylsulfonyl)amino]methyl}-1H-pyrazol-1-yl]pyridine-3-carboxamide]	–	+ (+ means 30≦Ki(cathepsin L)/Ki(calpain)<50)	++ (++ means a Ki(cathepsin S)/Ki(calpain) ratio of ≧100)
CC(C)c1ccc2c(c1)-c1nn(-c3ncccc3C(=O)NC(Cc3ccccc3)C(=O)C(N)=O)cc1CO2 (stereo not shown) [Example 144, N-[3-Amino-2,3-dioxo-1-(phenylmethyl)propyl]-2-[8-(1-methylethyl)chromeno[4,3-c]pyrazol-2(4H)-yl]pyridine-3-carboxamide]	+ (+ means 10≦Ki(cathepsin B)/Ki(calpain)<30)	++ (++ means a Ki(cathepsin L)/Ki(calpain) ratio of ≧50)	++ (++ means a Ki(cathepsin S)/Ki(calpain) ratio of ≧100)
